Data reported in patent publication US7868135B2, “Compositions of lipopeptide antibiotic derivatives and methods of use thereof” (priority 2003, dated 2011).
Starred links: 1 amine or outer side, 2 acyl side, 3 side chain; linkers in the order of their positions; H or OH if unused. Positions of bridges follow the written chain, without caps; N, C: chain ends. Non-standard residues stand in square brackets, D forms with d. Residues, ends and D or L forms follow the SMILES beside them. ξ: configuration not given here. *: point of attachment. X14 = CC(NC(=O)[C@@H](N)CNC(=O)CCN)C(N[*:1])C(=O)[*:2]; X30 = CC(NC(=O)Cc1ccc(N)cc1)C(N[*:1])C(=O)[*:2]; ξAbu(βξ-NH2) = CC(N[*:3])C(N[*:1])C(=O)[*:2]; X41 = CC(NC(=O)C1CCCCC1)C(N[*:1])C(=O)[*:2]; Lys(Me3) = C[N+](C)(C)CCCC[C@H](N)C(=O)O; Arg(Me2s) = CN=C(NC)NCCC[C@H](N)C(=O)O; Pentadecanoyl = CCCCCCCCCCCCCCC(=O)*; ξAsp(βξ-Me) = CC(C(=O)O)C(N)C(=O)O; Pip = O=C(O)[CH]1CCCCN1; ξD = NC(CC(=O)O)C(=O)O; ξPip = O=C(O)C1CCCCN1; ξV = CC(C)C(N)C(=O)O; ξP = O=C(O)C1CCCN1

Tested on: Staphylococcus aureus (MSSA)
Conditions: 24 h
Summary of the method: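 Broth microdilution MIC per NCCLS M7-A6 with doubling serial dilutions, in cation-adjusted Mueller-Hinton broth supplemented with 0.625 mM calcium.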

MIC [µg/mL] | Structure (SMILES)
1 | CCCCCCCCCCCCCCC(=O)NC(CC(=O)O)C(=O)NC1C(=O)N2CCCCC2C(=O)NC(C(C)C(=O)O)C(=O)NC(CC(=O)O)C(=O)NCC(=O)NC(CC(=O)O)C(=O)NCC(=O)NC(C(C)NC(=O)CCNC(=O)CCCCN)C(=O)NC(C(C)C)C(=O)N2CCCC2C(=O)NC1C (stereo not drawn) [Compound 173, C15-Amphomycin-9-(β-Ala)-(5-Ava)]
2 | CCCCCCCCCCCCCCC(=O)NC(CC(=O)O)C(=O)NC1C(=O)N2CCCCC2C(=O)NC(C(C)C(=O)O)C(=O)NC(CC(=O)O)C(=O)NCC(=O)NC(CC(=O)O)C(=O)NCC(=O)NC(C(C)NC(=O)CCNC(=O)[C@@H](N)C(C)C)C(=O)NC(C(C)C)C(=O)N2CCCC2C(=O)NC1C (stereo partly drawn) [Compound 174, C15-Amphomycin-9-(β-Ala)-Val]
4 | CCCCCCCCCCCCCCC(=O)NC(CC(=O)O)C(=O)NC1C(=O)N2CCCCC2C(=O)NC(C(C)C(=O)O)C(=O)NC(CC(=O)O)C(=O)NCC(=O)NC(CC(=O)O)C(=O)NCC(=O)NC(C(C)NC(=O)CCCCNC(=O)CCN)C(=O)NC(C(C)C)C(=O)N2CCCC2C(=O)NC1C (stereo not drawn) [Compound 176, C15-Amphomycin-9-(5-Ava)-(β-Ala)]
1 | CCCCCCCCCCCCCCC(=O)NC(CC(=O)O)C(=O)NC1C(=O)N2CCCCC2C(=O)NC(C(C)C(=O)O)C(=O)NC(CC(=O)O)C(=O)NCC(=O)NC(CC(=O)O)C(=O)NCC(=O)NC(C(C)NC(=O)CNC(=O)[C@H](CCCCN)NC(=O)CN)C(=O)NC(C(C)C)C(=O)N2CCCC2C(=O)NC1C (stereo partly drawn) [Compound 190, C15-Amphomycin-9-Gly-Lys-Gly]
0.5 to 1 | CCCCCCCCCCCCCCC(=O)NC(CC(=O)O)C(=O)NC1C(=O)N2CCCCC2C(=O)NC(C(C)C(=O)O)C(=O)NC(CC(=O)O)C(=O)NCC(=O)NC(CC(=O)O)C(=O)NCC(=O)NC(C(C)NC(=O)CNC(=O)CNC(=O)[C@@H](N)CCCCN)C(=O)NC(C(C)C)C(=O)N2CCCC2C(=O)NC1C (stereo partly drawn) [Compound 192, C15-Amphomycin-9-Gly-Gly-Lys]
4 to 8 | CCCCCCCCCCCCCCC(=O)NC(CC(=O)O)C(=O)NC1C(=O)N2CCCCC2C(=O)NC(C(C)C(=O)O)C(=O)NC(CC(=O)O)C(=O)NCC(=O)NC(CC(=O)O)C(=O)NCC(=O)NC(C(C)NC(=O)[C@H](CCCCN)NC(=O)CN)C(=O)NC(C(C)C)C(=O)N2CCCC2C(=O)NC1C (stereo partly drawn) [Compound 193, C15-Amphomycin-9-Lys-Gly]
0.25 to 0.5 | CCCCCCCCCCCCCCC(=O)NC(CC(=O)O)C(=O)NC1C(=O)N2CCCCC2C(=O)NC(C(C)C(=O)O)C(=O)NC(CC(=O)O)C(=O)NCC(=O)NC(CC(=O)O)C(=O)NCC(=O)NC(C(C)NC(=O)CNC(=O)CCCCCN)C(=O)NC(C(C)C)C(=O)N2CCCC2C(=O)NC1C (stereo not drawn) [Compound 197, C15-Amphomycin-9-Gly-Ahx]
4 | CCCCCCCCCCCCCCC(=O)NC(CC(=O)O)C(=O)NC1C(=O)N2CCCCC2C(=O)NC(C(C)C(=O)O)C(=O)NC(CC(=O)O)C(=O)NCC(=O)NC(CC(=O)O)C(=O)NCC(=O)NC(C(C)NC(=O)CN(C)C(=O)CCCCCN)C(=O)NC(C(C)C)C(=O)N2CCCC2C(=O)NC1C (stereo not drawn) [Compound 198, C15-Amphomycin-9-Sar-Ahx]
1 | CCCCCCCCCCCCCCC(=O)NC(CC(=O)O)C(=O)NC1C(=O)N2CCCCC2C(=O)NC(C(C)C(=O)O)C(=O)NC(CC(=O)O)C(=O)NCC(=O)NC(CC(=O)O)C(=O)NCC(=O)NC(C(C)NC(=O)[C@@H](N)CNC(=O)CCN)C(=O)NC(C(C)C)C(=O)N2CCCC2C(=O)NC1C (stereo partly drawn) [Compound 200, C15-Amphomycin-9-Dap-(β-N-(β-Ala))] (Pentadecanoyl-[ξD][ξAbu(βξ-NH2)][ξPip][ξAsp(βξ-Me)][ξD]G[ξD]G[X14][ξV][ξP]; lactam 2-C)
32 | CCCCCCCCCCCCCCC(=O)NC(CC(=O)O)C(=O)NC1C(=O)N2CCCCC2C(=O)NC(C(C)C(=O)O)C(=O)NC(CC(=O)O)C(=O)NCC(=O)NC(CC(=O)O)C(=O)NCC(=O)NC(C(C)NC(=O)CCCCC)C(=O)NC(C(C)C)C(=O)N2CCCC2C(=O)NC1C (stereo not drawn) [Compound 201, C15-Amphomycin-9-C6]
16 | CCCCCCCCCCCCCCC(=O)NC(CC(=O)O)C(=O)NC1C(=O)N2CCCCC2C(=O)NC(C(C)C(=O)O)C(=O)NC(CC(=O)O)C(=O)NCC(=O)NC(CC(=O)O)C(=O)NCC(=O)NC(C(C)NC(=O)CCCCCCC)C(=O)NC(C(C)C)C(=O)N2CCCC2C(=O)NC1C (stereo not drawn) [Compound 205, C15-Amphomycin-9-C8]
16 | CCCCCCCCCCCCCCC(=O)NC(CC(=O)O)C(=O)NC1C(=O)N2CCCCC2C(=O)NC(C(C)C(=O)O)C(=O)NC(CC(=O)O)C(=O)NCC(=O)NC(CC(=O)O)C(=O)NCC(=O)NC(C(C)NC(=O)CCC)C(=O)NC(C(C)C)C(=O)N2CCCC2C(=O)NC1C (stereo not drawn) [Compound 207, C15-Amphomycin-9-C4]

More lines, now with the values behind:

Structure (SMILES) | MIC [µg/mL]
CCCCCCCCCCCCCCC(=O)NC(CC(=O)O)C(=O)NC1C(=O)N2CCCCC2C(=O)NC(C(C)C(=O)O)C(=O)NC(CC(=O)O)C(=O)NCC(=O)NC(CC(=O)O)C(=O)NCC(=O)NC(C(C)NC(=O)[C@@H](N)CC)C(=O)NC(C(C)C)C(=O)N2CCCC2C(=O)NC1C (stereo partly drawn) [Compound 164, C15-Amphomycin-9-Abu] | 4
CCCCCCCCCCCCCCC(=O)NC(CC(=O)O)C(=O)NC1C(=O)N2CCCCC2C(=O)NC(C(C)C(=O)O)C(=O)NC(CC(=O)O)C(=O)NCC(=O)NC(CC(=O)O)C(=O)NCC(=O)NC(C(C)NC(=O)[C@@H](N)CCCNC(N)=O)C(=O)NC(C(C)C)C(=O)N2CCCC2C(=O)NC1C (stereo partly drawn) [Compound 165, C15-Amphomycin-9-Cit] | 4
CCCCCCCCCCCCCCC(=O)NC(CC(=O)O)C(=O)NC1C(=O)N2CCCCC2C(=O)NC(C(C)C(=O)O)C(=O)NC(CC(=O)O)C(=O)NCC(=O)NC(CC(=O)O)C(=O)NCC(=O)NC(C(C)NC(=O)[C@@H](N)CCCNC(=NC)NC)C(=O)NC(C(C)C)C(=O)N2CCCC2C(=O)NC1C (stereo partly drawn) [Compound 166, C15-Amphomycin-9-(ME)2Arg] (Pentadecanoyl-[ξD][ξAbu(βξ-NH2)][ξPip][ξAsp(βξ-Me)][ξD]G[ξD]G[ξAbu(βξ-NH2)](Arg(Me2s))[ξV][ξP]; lactam 2-C) | 32
CCCCCCCCCCCCCCC(=O)NC(CC(=O)O)C(=O)NC1C(=O)N2CCCCC2C(=O)NC(C(C)C(=O)O)C(=O)NC(CC(=O)O)C(=O)NCC(=O)NC(CC(=O)O)C(=O)NCC(=O)NC(C(C)NC(=O)[C@@H]2C[C@@H](O)CN2)C(=O)NC(C(C)C)C(=O)N2CCCC2C(=O)NC1C (stereo partly drawn) [Compound 167, C15-Amphomycin-9-Hyp] | 4 to 8
CCCCCCCCCCCCCCC(=O)NC(CC(=O)O)C(=O)NC1C(=O)N2CCCCC2C(=O)NC(C(C)C(=O)O)C(=O)NC(CC(=O)O)C(=O)NCC(=O)NC(CC(=O)O)C(=O)NCC(=O)NC(C(C)NC(=O)Cc2ccc(N)cc2)C(=O)NC(C(C)C)C(=O)N2CCCC2C(=O)NC1C (stereo not drawn) [Compound 168, C15-Amphomycin-9-(p-Apa)] (Pentadecanoyl-D[ξAbu(βξ-NH2)][Pip][ξAsp(βξ-Me)]DGDG[X30]VP; lactam 2-C; configuration not given here) | 32 to 64
CCCCCCCCCCCCCCC(=O)NC(CC(=O)O)C(=O)NC1C(=O)N2CCCCC2C(=O)NC(C(C)C(=O)O)C(=O)NC(CC(=O)O)C(=O)NCC(=O)NC(CC(=O)O)C(=O)NCC(=O)NC(C(C)NC(=O)[C@@H](N)C(C)C)C(=O)NC(C(C)C)C(=O)N2CCCC2C(=O)NC1C (stereo partly drawn) [Compound 169, C15-Amphomycin-9-Val] | 4
CCCCCCCCCCCCCCC(=O)NC(CC(=O)O)C(=O)NC1C(=O)N2CCCCC2C(=O)NC(C(C)C(=O)O)C(=O)NC(CC(=O)O)C(=O)NCC(=O)NC(CC(=O)O)C(=O)NCC(=O)NC(C(C)NC(=O)[C@@H](N)CCCC[N+](C)(C)C)C(=O)NC(C(C)C)C(=O)N2CCCC2C(=O)NC1C (stereo partly drawn) [Compound 170, C15-Amphomycin-9-(ME)3Lys] (Pentadecanoyl-[ξD][ξAbu(βξ-NH2)][ξPip][ξAsp(βξ-Me)][ξD]G[ξD]G[ξAbu(βξ-NH2)](Lys(Me3))[ξV][ξP]; lactam 2-C) | 2
CCCCCCCCCCCCCCC(=O)NC(CC(=O)O)C(=O)NC1C(=O)N2CCCCC2C(=O)NC(C(C)C(=O)O)C(=O)NC(CC(=O)O)C(=O)NCC(=O)NC(CC(=O)O)C(=O)NCC(=O)NC(C(C)NC(=O)[C@@H](N)CCCC)C(=O)NC(C(C)C)C(=O)N2CCCC2C(=O)NC1C (stereo partly drawn) [Compound 171, C15-Amphomycin-9-Nle] | 8
CCCCCCCCCCCCCCC(=O)NC(CC(=O)O)C(=O)NC1C(=O)N2CCCCC2C(=O)NC(C(C)C(=O)O)C(=O)NC(CC(=O)O)C(=O)NCC(=O)NC(CC(=O)O)C(=O)NCC(=O)NC(C(C)NC(=O)CNC(=O)[C@H](CCCCN)NC(=O)[C@@H](N)CCCCN)C(=O)NC(C(C)C)C(=O)N2CCCC2C(=O)NC1C (stereo partly drawn) [Compound 191, C15-Amphomycin-9-Gly-Lys-Lys] | 8
CCCCCCCCCCCCCCC(=O)NC(CC(=O)O)C(=O)NC1C(=O)N2CCCCC2C(=O)NC(C(C)C(=O)O)C(=O)NC(CC(=O)O)C(=O)NCC(=O)NC(CC(=O)O)C(=O)NCC(=O)NC(C(C)NC(=O)[C@H](CCCCN)NC(=O)[C@@H](N)CCCCN)C(=O)NC(C(C)C)C(=O)N2CCCC2C(=O)NC1C (stereo partly drawn) [Compound 194, C15-Amphomycin-9-Lys-Lys] | 2
CCCCCCCCCCCCCCC(=O)NC(CC(=O)O)C(=O)NC1C(=O)N2CCCCC2C(=O)NC(C(C)C(=O)O)C(=O)NC(CC(=O)O)C(=O)NCC(=O)NC(CC(=O)O)C(=O)NCC(=O)NC(C(C)NC(=O)[C@H](CCCCN)NC(=O)[C@H](CCCCN)NC(=O)[C@@H](N)CCCCN)C(=O)NC(C(C)C)C(=O)N2CCCC2C(=O)NC1C (stereo partly drawn) [Compound 195, C15-Amphomycin-9-Lys-Lys-Lys] | 4
CCCCCCCCCCCCCCC(=O)NC(CC(=O)O)C(=O)NC1C(=O)N2CCCCC2C(=O)NC(C(C)C(=O)O)C(=O)NC(CC(=O)O)C(=O)NCC(=O)NC(CC(=O)O)C(=O)NCC(=O)NC(C(C)NC(=O)C2CCCCC2)C(=O)NC(C(C)C)C(=O)N2CCCC2C(=O)NC1C (stereo not drawn) [Compound 206, C15-Amphomycin-9-cHexyl] (Pentadecanoyl-D[ξAbu(βξ-NH2)][Pip][ξAsp(βξ-Me)]DGDG[X41]VP; lactam 2-C; configuration not given here) | 8
